# Source: US20060287353A1, “Method for preventing or treating ischemia-or hemorrhage-induced brain damage using a macrolide compound” (Astellas Pharma Inc., priority 1999, published 2006)
# How the values were obtained:
# [1] = tested on: rat endothelin-induced MCA occlusion model; test: Neuroprotective efficacy in the rat endothelin-induced MCA occlusion model (ET-1 model of stroke); format: in vivo; settings: five minutes post-lesion, male Sprague Dawley rats, damage assessed three days post-lesion
# Method: Neuroprotective efficacy of the compound (I) in the rat endothelin-induced MCA occlusion model
# The compound (I) was dissolved in a polyoxyethylene-hydrogenated castor oil 60/ethanol (400mg/1 ml) solution and administered at 1 and 3 mg.kg^−1. All drugs and relevant control were administered in a volume of 2 ml. kg^−1. MCA occlusion by the endothelin method was performed on male Sprague Dawley rats (271- 324g) as described in U.S. Pat. No. 5,648,351. All drugs were infused through the i.v. catheter at 1 ml min^−1, five minutes post-lesion. The animals were sacrificed by cardiac infusion under barbiturate anaesthesia. Volume of lesion was calculated from measured areas of damage (as assessed three days post-lesion) using the Trapezoid Rule. Results are presented as volume (mm^3)±SEM. Statistical analysis was performed using ANOVA and post hoc Student-Newman-Keuls test, where p<0.05 was set as an acceptable level for significance.
# [2] = Immunosuppressive activity (statement, no method described); settings: stated in text without test details
smiles,measurement,setting,value
COC1CC(/C=C(\C)C2OC(=O)C3CCCCN3C(=O)C(=O)C3(O)OC(C(OC)CC(C)C/C(C)=C/C(CC(C)=O)C(=O)CC(O)C2C)C(OC)CC3C)CCC1O (stereo not drawn) [compound (I)],protection of the cortex (lesion volume) against vehicle,"[1]; 1 mg.kg^-1 i.v., n=14",61%
same,protection of the cortex (lesion volume) against vehicle,"[1]; 3 mg.kg^-1 i.v., n=9",42%
same,immunosuppressive activity,[2],no immunosuppressive activity
